Results published in US20110151020A1, “ACTIVE SUBSTANCE COMBINATION WITH GEMCITABINE FOR THE TREATMENT OF EPITHELIAL CANCER” (priority 2008, published 2011).

Legend:
pancreatic CSC spheres = assay: CSC-enriched tumour sphere assay; assay type: cell-based, human; conditions: ultra low adhesion 6-well plates
Protocol: (§1) First, pancreatic CSC were clonally expanded as CSC-enriched spheres (FIGS. 18C1-18C5). Floating spheres were treated in ultra low adhesion 6-well plates. After completion of the treatment, five randomly selected high-power fields were analyzed.
Human pancreatic cancer cell line. The highly metastatic human pancreatic cell line L3.6pl was maintained in DMEM medium (Invitrogen, Karlsruhe, Germany) with 12% Fetal Calf Serum (Biochrom, Berlin, Germany), Glutamax (Invitrogen), non-essential amino acids, and vitamins (all from PAN, Aidenbach, Germany) (Hermann et al., 2007, supra). Cultures were kept no longer than 4 weeks after recovery from frozen stocks. CSC spheres were cultured in DMEM-F12 supplemented with B27 (Gibco, Karlsruhe, Germany) and FGF-2 (PeproTech EC, London, United Kingdom) (Hermann et al., 2007, supra).

[1] = test system: CD133+ CXCR4+ CSC subpopulation; assay: Flow cytometry of migrating CSC; assay type: cell-based, human
[2] = test system: orthotopically implanted tumour cells; assay: In vivo treatment of orthotopic tumours with Gemcitabine and SB431542; parameters: species or system mice
Protocol: Seven days after orthotopic implantation of tumour cells, therapy with either Gemcitabine alone or in combination with targeted Nodal/Activin inhibition by SB431542 was initiated. The double combination therapy was stopped after 14 days of treatment, the single Gemcitabine treatment was continued until sacrifice of the animals. 35 days after tumour cell treatment, PET scans were done and evaluation of tumour volume was performed on day 42.

[3] = test system: side population (SP) cells; assay: Side population (Hoechst 33342 exclusion); assay type: cell-based, human
Protocol: as §1

[4] = test system: primary human pancreatic cancer tissue; assay: In vivo triple combination treatment of implanted patient pancreatic tumor tissue; parameters: species or system mice; conditions: treatment from day 21; assessed up to 100 days
Protocol: Tumor tissue from patient with pancreatic cancer was implanted into immunocompromised mice. Treatment was started on day 21 after implantation. Mice were randomized to gemcitabine alone or combination therapy. Tumor growth was assessed up to 100 days.

[5] = test system: primary human pancreatic cancer cells; assay: CSC content by flow cytometry in primary pancreatic cancer cells from patients; assay type: cell-based; conditions: freshly isolated primary pancreatic cancer cells
Protocol: The findings from Examples 1.1 and 1.2 in tumour cell lines were reproduced in primary patient tissue with viability tested with propidium iodide (FIGS. 4A-4D).
The findings from Examples 2.1 in tumour cell lines were reproduced in fresh primary tumour cells from patients with pancreatic cancer with viability tested with propidium iodide (FIGS. 13A-13D). In vitro treatment with the combined therapy of 100 ng/ml Gemcitabine and 5 μM SB431542 led to the elimination of CD 133^+ cancer stem cells.
Primary human pancreatic cancer cells. Human pancreatic cancers were obtained with written informed consent from all patients. Tissue fragments were minced with scissors into small (1-2 mm^3) fragments. Enzymatic digestion was performed using a mixture of DMEM medium and collagenase (Stem Cell Technologies, Vancouver, Canada) for 90 min at 37° C. (Hermann et al., 2007, supra).
Cytometry. Pancreatic CSC were identified by CD133/1-APC or CD133-PE (Miltenyi, Bergisch-Gladbach, Germany) (Hermann et al., 2007, supra). Side population experiments were performed as described by Goodell et al. (1996) (see Goodell et al., 1996, J Exp Med 183, 1797-1806) and cells were identified by exclusion of the vital dye Hoechst 33342. […]

[6] = test system: primary human pancreatic cancer tissue; assay: In vivo treatment of implanted patient pancreatic tumor tissue with gemcitabine plus SB431542; parameters: species or system mice; conditions: treatment from day 7, assessed day 28
Protocol: FIG. 33: In vivo treatment with the Alk4/7 inhibitor SB431542. This illustrates Nodal/Activin inhibition to eliminate primary human pancreatic CSC in vivo. Tumor tissue from patient with pancreatic cancer was implanted into immunocompromised mice. Treatment was started on day 7 after implantation. Mice were randomized to gemcitabine alone or gemcitabine plus SB431542. Tumor growth was assessed on day 28.

[7] = test system: L3.6pl pancreatic cancer cells; assay: Tumorigenicity after in vitro pre-treatment and orthotopic implantation; assay type: in vivo, mice
Protocol: After 96 hours of pretreatment, the remaining viable cells were orthotopically implanted into the pancreas of mice, which received no further treatment in vivo.
Cultivated pancreatic cancer cells were exposed to either Gemcitabine alone representing clinical standard therapy, SB431542 alone, or a combination of Gemcitabine and SB431542 in the above given respective concentrations. After 96 hours of pretreatment, the remaining viable cells were orthotopically implanted into the pancreas of mice, which received no further treatment in vivo.
A prerequisite of CSC is their ability to form tumours in secondary recipients. Due to the limited number of cancer (stem) cells that can be obtained from primary tissues, it is virtually impossible to reproducibly perform in vivo treatment experiments with fresh patient-derived cells. Therefore, all subsequent in vivo experiments were performed with the established L3.6pl pancreatic cancer cells. The design of the experiment is illustrated in FIG. 20A. […] After 4 days of pretreatment, the surviving cells were orthotopically implanted into the pancreas, which received no further in vivo treatment. Tumorigenicity was first determined by PET scans on day 30 (FIGS. 20B, 20C; left panel) and by final macroscopic and microscopic histological evaluation on day 35 (FIGS. 20B, 20C; right panel).
Animals and Orthotopic Implantation of Tumour Cells. Single-cell suspensions were orthotopically implanted into the pancreas of female NMRI nu/nu mice (Janvier, Le Genest-Saint-Isle, France) (Hermann et al., 2007, supra). Size and weight of the pancreatic tumours were monitored.
In vitro treatment of pancreatic cancer cells. […] For the evaluation of the in vivo tumorigenicity, […] L3.6pl cells were pretreated with the respective regimen and the remaining viable cells were orthotopically implanted into the pancreas of nude mice and evaluated on day 35. For the systemic infusion assay, cells were labelled with the Qtracker 800 labelling kit (Invitrogen) according to the manufacturer's instructions, and 5×10^5 cells were injected intravenously into mice. After 4 weeks, explanted lungs were scanned for metastases with a near-infrared imaging platform (Odyssey, Li-cor, Lincoln, Nebr.). Positive signals were verified by histology (H&E staining).

## Nc1ccn(C2OC(CO)C(O)C2(F)F)c(=O)n1 (stereo not shown) [Gemcitabine, 4-amino-1-[3,3-difluoro-4-hydroxy-5-(hydroxymethyl)tetrahydrofuran-2-yl]-1H-pyrimidin-2-one]
Pancreatic CSC spheres
  tumour spheres / CD133+ cells in CSC-enriched spheres: marked relative increase of CD133^+ cells
[1]
  CD133+ CXCR4+ migrating CSC: enriches
[2]; mouse, in vivo
  tumour size: reduction of tumour size
[2]; therapy from day 7, combination 14 days, PET day 35, volume day 42
  tumour formation / tumour incidence: unaffected
[3]
  side population (SP) cells: unaffected
[4]
  tumor growth: virtually unrestricted growth
[5]
  CSC fraction (CD133+ and CD24+CD44+EpCAM+ populations): tended to relatively enrich
[6]
  tumor response / regression: strong response
[7]; 4 days of pretreatment, PET day 30, histology day 35
  tumour take rate / tumorigenicity: did not generate any effect
[7]; 96 hours pretreatment, 100 ng/ml Gemcitabine, 5 μM SB431542
  tumorigenicity after in vitro pre-treatment: close to no effect
